Structures can show the parent of a compound that is named as a salt.

Series [1] in a line: solubility in organic solvents and polymers. Conditions: for solubility in organic solvents: organic solvents (tetrahydrofurane, acetonitrile, dimethylformamide, ethyl acetate, glymes ...), mostly also in aprotic solvating or polar polymers.
The nature of series [2]: cationic transport number of electrolytes. The format is physicochemical. Conditions: in poly (ethylene oxide).
Series [3] can be described thus: oxidation potential towards a lithium anode. The format is physicochemical.
A short description of series [4]: ionic conductivity of salts and polyelectrolytes in polymer, liquid, gel or molten media. The format is physicochemical.
The conditions of series [5]: acid form; cited from earlier work.
A short description of series [6]: reversible redox potential in poly (ethylene oxide) on a platinum electrode, towards a lithium electrode. Conditions: platinum electrode 125 μm. The format is physicochemical. As to the method:
These salts have a reversible redox couple. In poly (ethylene oxide) a reversible potential≈3.4 V towards a lithium electrode was determined on a platinum electrode having a diameter of 125 μm.
This salt has two reversible redox couples. In poly (ethylene oxide), on a platinum electrode of a diameter of 125 μm, it was shown that there is a first redox couple having a potential≈3.2 V and a second redox couple having a potential≈3.8 V, these potentials being measured towards a lithium electrode.

The mark [7] stands for this setting: in poly (ethylene oxide), O/Li 12/1, 60° C.

On to `O=S(=O)(CCc1c2ccccc2cc2ccccc12)[N-]S(=O)(=O)C(F)(F)F.[K+]` [Example 56, potassium salt of trifluoromethanesulfonyl(anthracenyl-9-ethanesulfonyl)imide], for which the “solubility in organic solvents” value in series [1] was “soluble in most usual organic solvents”.

Take `CCCCCCCCCCCCS(=O)(=O)[N-]S(=O)(=O)C(F)(F)F.[Li+]` [lithium salt of trifluoromethanesulfonyl(dodecylsulfonyl)imide]: the cationic transport number entry in series [2] (O/Li=16/1) was “about 0.55”.

As to `O=S(=O)(Nc1nnc(C(F)(F)F)s1)C(F)(F)F` [Example 34, trifluoromethanesulfonyl(5-trifluoromethyl-1,3,4 thiadiazole)amide], the oxidation potential entry in series [3] (1 M in ethylene carbonate and dimethylcarbonate (2:1)) was “higher than 4 V”. In addition, the “solubility in organic solvents” value in series [1] is “soluble in most usual organic solvents”.

With `CCCCC(CC)CN(CC(CC)CCCC)S(=O)(=O)[N-]S(=O)(=O)C(F)(F)F.CCN1C(=CC=CC=CC=Cc2sc3ccccc3[n+]2CC)Sc2ccccc21` [3,3′-diethylthiatricarbocyanine of di-2-ethylhexylaminosulfonyl(trifluoro-methanesulfonyl)imide], the “solubility in low polar solvents” value in series [1] (dichloromethane or methylene chloride, polymer matrices with low polarity such as methyl polymethacrylate) is on record as “very soluble in low polar solvents”.

With `CN(C)S(=O)(=O)[N-]S(=O)(=O)C(F)(F)F.CN(C)S(=O)(=O)[N-]S(=O)(=O)C(F)(F)F.CN(C)S(=O)(=O)[N-]S(=O)(=O)C(F)(F)F.[La+3]` [Example 30, lanthanum salt of trifluoromethanesulfonyl(dimethylaminosulfonyl)-imide], the “solubility in organic solvents” value in series [1] is given as “highly soluble in the usual organic solvents”.

As for `O=S(=O)(NS(=O)(=O)C(F)(F)F)OC(C(F)(F)F)C(F)(F)F` [Example 37 molten salt, trifluoromethanesulfonyl(1,1,1,3,3,3-hexafluoro-2-propanoxysulfonyl)imide 1-ethyl-3-methyl-1H-imidazolium], the conductivity in series [4] (neat molten salt, temperature not stated) is 3.91×10^−3 S·cm^−1.

Consider “N-trifluoromethanesulfonyl-2-aminoacridine tetraethylammonium [Example 54]”, for which the “solubility in organic solvents” value in series [1] was “soluble in most usual organic solvents”.

With `CCCN(CCC)S(=O)(=O)[N-]S(=O)(=O)C(F)(F)F.[Li+]` [lithium salt of trifluoromethanesulfonyl(dipropylaminosulfonyl)-imide], the conductivity in series [4] (in poly (ethylene oxide), O/Li=12/1, temperature not stated) was 1.4×10^−4 S·cm^−1. The molecule further yielded a cationic transport number in series [2] (O/Li=12/1) of 0.42.

On to “potassium salt of N,N′,N″,N′″-perfluorobutanesulfonyl-Nickel(II) phtalocyaninetetrasulfonamide [Example 57]”, for which the “solubility in organic solvents” value in series [1] is “soluble in most usual organic solvents”.

For the molecule `CN(C)S(=O)(=O)[N-]S(=O)(=O)C(F)(F)F.[K+]` [potassium salt of trifluoromethanesulfonyl-(dimethylaminosulfonyl)irnide], in series [4] (in poly (ethylene oxide), O/K=12/1, 60° C.), the conductivity is recorded as 5.10^−4 S·cm^−1.

For the molecule `O=S(=O)(NS(=O)(=O)C(F)(F)F)C(F)(F)F` [H[CF3SO2—N—SO2CF3]], the pKa in series [5] is 1.95.

For `CN(C)c1cccc2c(S(=O)(=O)[N-]S(=O)(=O)C(F)(F)F)cccc12.[K+]` [Example 53, potassium trifluoromethane-sulfonyl(5-dimethylamino-1-naphthalenesulfonyl)imide], in series [1], the “solubility in organic solvents” value is “soluble in most polar organic solvents”.

Turning to `O=S(=O)([N-]S(=O)(=O)C(F)(F)F)c1nnc(C(F)(F)F)s1.[Li+]` [Example 35, lithium salt of trifluoromethanesulfonyl(5-trifluoromethyl-1,3,4-thiadiazole-5-sulfonyl)imide], the oxidation potential entry in series [3] (0.5 M in acetonitrile) was “higher than 4.5 V”. Besides, the “solubility in organic solvents” value in series [1] is listed as “soluble in most usual organic solvents”.

Turning to `O=S(=O)(CC(F)(F)F)[N-]S(=O)(=O)C(F)(F)F.[Li+]` [Example 9, lithium salt of trifluoromethanesulfonyl(2,2,2-trifluoroethane-sulfonyl) imide], the conductivity in series [4] (setting [7]) is recorded as 2.3×10^−4 S·cm^−1.

Take `CCN(CC)S(=O)(=O)[N-]S(=O)(=O)C(F)(F)F.CCN(CC)S(=O)(=O)[N-]S(=O)(=O)C(F)(F)F.CCN(CC)S(=O)(=O)[N-]S(=O)(=O)C(F)(F)F.[Yb+3]` [Yb(DETFSI)3, ytterbium salt of diethylaminosulfonyl(trifluoromethanesulfonyl)imide]: the solubility in dichloromethane result in series [1] (dichloromethane) is given as “good solubility in dichloromethane”.

As to “di-lithium salt of 9-10-(propylsulfonamide-N-trifluoromethanesulfonyl)phenazine [Example 61]”, in series [6], the “potential of first redox couple” value was “≈ 3.2 V” and the “potential of second redox couple” value was “≈ 3.8 V”.

`CN(C)S(=O)(=O)[N-]S(=O)(=O)C(F)(F)F.[Li+]` [lithium salt of trifluoromethanesulfonyl-(dimethylaminosulfonyl)imide]: the conductivity in series [4] (setting [7]) was 1.2×10^−4 S·cm^−1.

One may read the pKa as the negative logarithm of the acid dissociation constant.

Source of the values: patent US20240253023A1, “PERFLUORINATED AMIDE SALTS AND THEIR USES AS IONIC CONDUCTING MATERIALS” (priority 1996, published 2024).
